Experimental data as given in patent US20130317054A1, “NEURONAL NICOTINIC AGONIST AND METHODS OF USE” (ABBVIE INC., priority 2012, published 2013).

What was measured:
[1] = tested on: clinically stable subjects with schizophrenia; experiment: Phase 2a Clinical Study A: NSA-16 (negative symptoms); assay type: in vivo, human
Text: (§1) A Phase 2a proof-of-concept (POC) study in clinically stable subjects with schizophrenia who were clinically stable and received stable doses of atypical antipsychotic therapy. The study was a Phase 2, multi-center, randomized, double-blind, placebo-controlled, parallel group study designed to evaluate the safety and efficacy of doses of (4s)-4-(5-phenyl-1,3,4-thiadiazol-2-yloxy)-1-azatricyclo[3.3.1.1^3,7]decane (Compound A) in clinically stable male and female subjects (ages 20 to 55, inclusive) with a Diagnostic and Statistical Manual of Mental Disorders—Fourth Edition, Text Revision (DSM-IV-TR) diagnosis of schizophrenia. […] The criteria for clinical stability was determined by a combination of retrospective data (over the 4 months prior to the start of Screening, which will be supported by clinical records, patient, identified responsible contact person, and physician interviews), and prospective data assessed during the Prospective Stabilization Period of 28 to 42 days duration. […]
(§2) The primary endpoint was the MCCB composite score, and the primary endpoint analysis was the change on the MCCB composite score from baseline to endpoint versus placebo. Other secondary measures included the MCCB domains, the NSA-16, the CANTAB cognition battery (measured at different time points from the MCCB), and the UPSA-2. […]

[2] = tested on: clinically stable subjects with schizophrenia; experiment: Phase 2a Clinical Study A: CANTAB cognition battery; assay type: in vivo, human; conditions: taken at different time points from the MCCB
Text: as §1, §2

[3] = tested on: clinically stable subjects with schizophrenia; experiment: Phase 2a Clinical Study A: disposition of subjects and tolerability; assay type: in vivo, human; conditions: for Primary reason for discontinuation: Adverse event: percentages based on treated subjects
Text: (§3) A Phase 2a proof-of-concept (POC) study in clinically stable subjects with schizophrenia who were clinically stable and received stable doses of atypical antipsychotic therapy. The study was a Phase 2, multi-center, randomized, double-blind, placebo-controlled, parallel group study designed to evaluate the safety and efficacy of doses of (4s)-4-(5-phenyl-1,3,4-thiadiazol-2-yloxy)-1-azatricyclo[3.3.1.1^3,7]decane (Compound A) in clinically stable male and female subjects (ages 20 to 55, inclusive) with a Diagnostic and Statistical Manual of Mental Disorders—Fourth Edition, Text Revision (DSM-IV-TR) diagnosis of schizophrenia. Psychiatric diagnoses were confirmed using the Mini-International Neuropsychiatric Interview (MINI) version 6.0.0. The criteria for clinical stability was determined by a combination of retrospective data (over the 4 months prior to the start of Screening, which will be supported by clinical records, patient, identified responsible contact person, and physician interviews), and prospective data assessed during the Prospective Stabilization Period of 28 to 42 days duration.
(§4) The study was a Phase 2, multi-center, randomized, double-blind, placebo-controlled, parallel group study designed to evaluate the safety and efficacy of doses of (4s)-4-(5-phenyl-1,3,4-thiadiazol-2-yloxy)-1-azatricyclo[3.3.1.1^3,7]decane, which is also recognized as Compound A, in treating cognitive deficits in subjects with schizophrenia who were clinically stable and receiving one or two atypical antipsychotic medications. Study drug was administered orally.
(§5) The study consisted of a screening period of at least 28 and up to 42 days, a 84-day outpatient treatment period, a 14-day post-treatment period, and a post-treatment follow-up period. The screening period consisted of three visits: Screening Visit 1, Screening Visit 2, and Day −1. Upon completion of Day −1 procedures, eligible subjects were randomized through an Interactive Voice Response/Interactive Web-Based (IVR/IWB) system. Subjects were randomized in an equal ratio to one of three treatment groups (placebo, 10 mg Compound A, or 25 mg Compound A).
(§6) Subjects were randomized in a 1:1:1 ratio with placebo, 10 mg QD Compound A, of 25 mg Compound A. Each subject was instructed to take study drug once-daily in the morning for 12 weeks. Each daily dose was preferably taken with food. The subject and investigator were blinded to the treatment assignment throughout the study. The treatment assignments for the study subjects are shown below in Table 1.
Subjects completed 2 visits during the screening period. […]

[4] = tested on: clinically stable subjects with schizophrenia; experiment: Phase 2a Clinical Study A: Positive and Negative Syndrome Scale (PANSS); assay type: in vivo, human; conditions: ITT or nonsmoker groups, throughout the study
Text: as §1, §2

[5] = tested on: clinically stable subjects with schizophrenia; experiment: Phase 2a Clinical Study A: UCSD Performance-Based Skills Assessment-2 (UPSA-2); assay type: in vivo, human; conditions: for UPSA-2 change from baseline score: placebo 2.6, not statistically significant
Text: as §3, §4, §5, §6
(§7) The primary endpoint was the MCCB composite score, and the primary endpoint analysis was the change on the MCCB composite score from baseline to endpoint versus placebo. Other secondary measures included the MCCB domains, the NSA-16, the CANTAB cognition battery (measured at different time points from the MCCB), and the UPSA-2. The Positive and Negative Syndrome Scale (PANSS) was included to document stability in schizophrenia symptomatology.
The UCSD Performance-Based Skills Assessment-2 (UPSA-2) is a role-play test designed for subjects with schizophrenia to evaluate cognitive functional capacity in six selected domains of basic living skills. These areas include Organization/Planning, Financial Skills, Communication, Transportation, Household Management, and Medication Management. […] Scores were obtained for each subtest, and the total score was the sum of these subtests. […] The UPSA-2 required an average of 30 minutes to administer. The UPSA-2 was administered in on Days 14, 28, 56, 84 and 98.

[6] = tested on: clinically stable subjects with schizophrenia; experiment: Phase 2a Clinical Study A: MATRICS Consensus Cognitive Battery (MCCB); assay type: in vivo, human; conditions: for change from baseline to Week 12 in MCCB composite score (LS mean): ITT analysis, 12 weeks; for MCCB composite LS mean change from baseline to Week 12: subset of nonsmokers
Text: as §3, §4, §5, §6, §7
The MCCB was developed by a consortium of academic, industry, the Food and Drug Administration (FDA) and National Institute of Mental Health (NIMH) members called Measurement and Treatment Research to Improve Cognition in Schizophrenia (MATRICS). The battery was established in a multiple phase process that involved experts identifying cognitive tests in the literature that had shown deficits in schizophrenia, use of factor analysis to identify key domains of cognitive deficits in schizophrenia, and then empirically identifying the best tests for each domain based on reliability, validity and feasibility for use in clinical trials. The FDA has endorsed the MCCB as an appropriate outcome measure for Phase 3 CDS trials. […]

[7] = tested on: patients with schizophrenia; conditions: cited from earlier work
[8] = tested on: patients with schizophrenia; conditions: cigarettes, sprays, patch; cited from earlier work
[9] = in vivo; cited from earlier work
[10] = nonsmokers, dose group not stated
[11] = subset of smoking subjects, both dose groups (10 mg, 25 mg)

c1ccc(-c2nnc(O[C@@H]3C4CC5C[C@H]3C[N@](C5)C4)s2)cc1 [Compound A, (4s)-4-(5-phenyl-1,3,4-thiadiazol-2-yloxy)-1-azatricyclo[3.3.1.1^3,7]decane]
effect on negative symptoms of schizophrenia (summary) ([1]; human, in vivo): No effect
NSA-16 analyses ([1]; nonsmoking subjects and subjects with predominant negative symptoms): did not reveal statistical significance
Results of the CANTAB battery [2]: markedly similar to those of the MCCB
Primary reason for discontinuation: Adverse event ([3]; 10 mg QD): 4 (5.8) n (%)
Primary reason for discontinuation: Adverse event ([3]; 25 mg QD): 3 (4.5) n (%)
Primary reason for discontinuation: Adverse event ([3]; Compound A overall): 7 (5.1) n (%)
tolerability in subjects with schizophrenia ([3]; doses up to 25 mg QD, including 10 mg QD and 25 mg QD): well tolerated
changes in the PANSS scores [4]: no significant changes
UPSA-2 composite score ([5]; ITT, either dose group (10 mg, 25 mg)): No significance
UPSA-2 change from baseline score ([5]; nonsmokers, 10 mg): 1.4
UPSA-2 change from baseline score ([5]; nonsmokers, 25 mg): 3.9
UPSA-2 effect size (Cohen's d) based on the raw data [5, 10]: 0.13
UPSA-2 model-based effect size [5, 10]: 0.23
change from baseline scores on the UPSA-2 [5, 11]: markedly similar to placebo
change from baseline to Week 12 in MCCB composite score (LS mean) ([6]; 10 mg QD oral, P=0.088 versus placebo (LS mean +0.50)): +1.79
change from baseline to Week 12 in MCCB composite score (LS mean) ([6]; 25 mg QD oral, P=0.067 versus placebo (LS mean +0.50)): +2.02
effect on cognition in subjects with schizophrenia (summary) ([6]; driven by verbal learning, working memory and attention, consequence of the effect in nonsmoking subjects): procognitive effect
MCCB social cognition domain, mean values across treatment groups ([6]; nonsmokers, 10 mg, 25 mg and placebo): similar
MCCB all other domains with the exception of reasoning and problem solving, effect versus placebo ([6]; nonsmokers, active treatment groups, monotonic dose relationship): magnitude of effect was greater
MCCB composite LS mean change from baseline to Week 12 ([6]; 10 mg, P=0.021 compared to placebo (−0.7)): +2.1
MCCB composite LS mean change from baseline to Week 12 ([6]; 25 mg, P=0.001 compared to placebo (−0.7)): +4.5
change from baseline scores on the MCCB composite and domain scores [6, 11]: markedly similar to placebo

COc1ccc(/C=C2\CCCN=C2c2cccnc2)c(OC)c1 [GTS-21]
effect on the Repeatable Battery for the Assessment of Neuropsychological Status total scale [7]: positive effects

CN1CCCC1c1cccnc1 (stereo not shown) [Nicotine, nicotine]
neuropsychological performance [8]: improved

O=C(N[C@H]1CN2CCC1CC2)c1cc2cccc(Cl)c2s1 [EVP-6124, N-[(3R)-1-azabicyclo[2.2.2]oct-3-yl]-7-chloro-1-benzothiophene-2-carboxamide]
effect on the CogState test battery [9]: improvements
